Experimental data taken from patent US11254668B2, “Pyrazolo[1,5-A]pyrazin-4-yl and related derivatives” (Pfizer Inc., priority 2017, dated 2022).
Like-named read-outs stand apart in the source and are kept apart here.

Columns and labels:
Type in all cases: biochemical
TYK2 = TYK2 (Homo sapiens (Human), UniProt P29597); assay: JAK Caliper Enzyme Assay at 1 mM ATP, TYK2
Method in brief: (§1)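 Inhibition is measured as reduced phosphorylation of a synthetic peptide by the recombinant human kinase domain at 1 mM ATP. Conditions give 20–30% conversion at room temperature before EDTA quench, and on-chip separation of labelled substrate and product yields percent conversion for dose–response plotting.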

JAK1 = JAK1 (Homo sapiens (Human), UniProt P23458); assay: JAK Caliper Enzyme Assay at 1 mM ATP, JAK1
Sequence of JAK1 (P23458 875-1153): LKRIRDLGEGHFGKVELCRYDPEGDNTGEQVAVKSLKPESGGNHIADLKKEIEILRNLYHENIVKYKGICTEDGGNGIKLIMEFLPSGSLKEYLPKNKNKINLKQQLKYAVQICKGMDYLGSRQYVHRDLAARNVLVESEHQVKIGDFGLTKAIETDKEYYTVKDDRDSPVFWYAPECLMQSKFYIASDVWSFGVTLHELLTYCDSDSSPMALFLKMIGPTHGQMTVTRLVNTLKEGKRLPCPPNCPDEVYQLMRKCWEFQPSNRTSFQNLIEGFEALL
Method in brief: (§2)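 IC50 (nM) derived from percent conversion of fluorescently labelled peptide, measured by Caliper LabChip mobility-shift separation after EDTA stop. Each JAK family kinase domain (human, recombinant) run at 1 mM ATP and room temperature, conditions set to 20-30% product; DMSO wells define uninhibited baseline.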

JAK2 = JAK2 (Homo sapiens (Human), UniProt O60674); assay: JAK Caliper Enzyme Assay at 1 mM ATP, JAK2
Sequence of JAK2 (O60674 849-1124): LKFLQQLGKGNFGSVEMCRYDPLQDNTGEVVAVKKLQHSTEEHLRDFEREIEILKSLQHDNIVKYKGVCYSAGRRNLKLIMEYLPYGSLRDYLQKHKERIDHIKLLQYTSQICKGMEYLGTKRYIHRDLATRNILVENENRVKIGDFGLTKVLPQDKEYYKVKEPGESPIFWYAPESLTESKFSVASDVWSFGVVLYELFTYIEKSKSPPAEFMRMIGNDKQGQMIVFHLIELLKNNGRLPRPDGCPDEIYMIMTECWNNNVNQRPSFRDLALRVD
Method in brief: as §1

JAK3 = JAK3 (Homo sapiens (Human), UniProt P52333); assay: JAK Caliper Enzyme Assay at 1 mM ATP, JAK3
Sequence of JAK3 (P52333 822-1111): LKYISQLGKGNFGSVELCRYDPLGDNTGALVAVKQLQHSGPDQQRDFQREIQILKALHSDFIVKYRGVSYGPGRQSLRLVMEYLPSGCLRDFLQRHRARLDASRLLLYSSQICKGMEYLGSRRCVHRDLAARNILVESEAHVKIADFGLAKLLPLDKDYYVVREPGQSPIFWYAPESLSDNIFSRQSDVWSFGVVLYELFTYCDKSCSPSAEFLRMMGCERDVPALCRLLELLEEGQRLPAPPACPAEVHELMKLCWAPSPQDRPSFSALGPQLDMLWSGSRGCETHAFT
Method in brief: as §2

Sequence of TYK2 (P29597 897-1176): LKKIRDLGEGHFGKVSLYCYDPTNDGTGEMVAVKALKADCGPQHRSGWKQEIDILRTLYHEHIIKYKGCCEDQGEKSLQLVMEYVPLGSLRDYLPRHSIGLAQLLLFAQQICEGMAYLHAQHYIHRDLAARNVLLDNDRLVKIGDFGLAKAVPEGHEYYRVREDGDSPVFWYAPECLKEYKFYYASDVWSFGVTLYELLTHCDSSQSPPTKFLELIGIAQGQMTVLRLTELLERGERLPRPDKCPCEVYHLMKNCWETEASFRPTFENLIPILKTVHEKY

Compound: N#CCC1(n2ccc(-c3nc(-c4cnn(C5COC5)c4)cc4ncccc34)n2)CN(CC(F)(F)F)C1 [Example 119, [3-(3-{7-[1-(oxetan-3-yl)-1H-pyrazol-4-yl]-1,6-naphthyridin-5-yl}-1H-pyrazol-1-yl)-1-(2,2,2-trifluoroethyl)azetidin-3-yl]acetonitrile]
- IC50 (TYK2): 29 nM
- IC50 (JAK1): 976 nM
- IC50 (JAK2): 82 nM
- IC50 (JAK3): 8380 nM

Compound: N#CC[C@]1(n2ncc(-c3cc(-c4ncc(CO)s4)cc4ncccc34)n2)C[C@H](C#N)C1 [Example 343, trans-3-(cyanomethyl)-3-(4-{7-[5-(hydroxymethyl)-1,3-thiazol-2-yl]quinolin-5-yl}-2H-1,2,3-triazol-2-yl)cyclobutanecarbonitrile]
- IC50 (TYK2): 65 nM
- IC50 (JAK1): 3340 nM
- IC50 (JAK2): 660 nM
- IC50 (JAK3): > 10000 nM

Compound: Cc1ncc(-c2cc(-c3cnn([C@]4(CC#N)C[C@H](C#N)C4)c3)n3ccnc3c2)[nH]1 [Example 465, cis-3-(cyanomethyl)-3-{4-[7-(2-methyl-1H-imidazol-5-yl)imidazo[1,2-a]pyridin-5-yl]-1H-pyrazol-1-yl}cyclobutanecarbonitrile]
- IC50 (TYK2; JAK Caliper enzyme assay): 54 nM
- IC50 (JAK1; JAK Caliper enzyme assay): 6000 nM
- IC50 (JAK2; JAK Caliper enzyme assay): 859 nM
- IC50 (JAK3; JAK Caliper enzyme assay): > 10000 nM

Compound: N#CC[C@]1(n2ccc(-c3nc(-c4cnn(CCO)c4)cc4ncccc34)n2)C[C@H](C#N)C1 [Example 126, trans-3-(cyanomethyl)-3-(3-{7-[1-(2-hydroxyethyl)-1H-pyrazol-4-yl]-1,6-naphthyridin-5-yl}-1H-pyrazol-1-yl)cyclobutanecarbonitrile]
- IC50 (TYK2): 41 nM
- IC50 (JAK1): 583 nM
- IC50 (JAK2): 119 nM
- IC50 (JAK3): > 10000 nM

Compound: CS(=O)(=O)N1CC(CC#N)(n2ccc(-c3nc(-c4c[nH]c5nccc-5c4)cc4ncccc34)n2)C1 [Example 157, [1-(methylsulfonyl)-3-{3-[7-(7H-pyrrolo[2,3-b]pyridin-5-yl)-1,6-naphthyridin-5-yl]-1H-pyrazol-1-yl}azetidin-3-yl]acetonitrile]
- IC50 (TYK2): 148 nM
- IC50 (JAK1): 1680 nM
- IC50 (JAK2): 856 nM
- IC50 (JAK3): > 10000 nM

Compound: N#CC[C@]1(n2ccc(-c3nc(-c4cc(N)cnn4)cc4ncccc34)n2)C[C@@H](C#N)C1 [Example 242, cis-3-{3-[7-(5-aminopyridazin-3-yl)-1,6-naphthyridin-5-yl]-1H-pyrazol-1-yl}-3-(cyanomethyl)cyclobutanecarbonitrile]
- IC50 (TYK2): 503 nM
- IC50 (JAK1): > 10000 nM
- IC50 (JAK2): 3770 nM
- IC50 (JAK3): > 10000 nM

Compound: CS(=O)(=O)N1CC(CC#N)(n2ncc(-c3cc(-c4cccc(O)c4)cc4ncccc34)n2)C1 [Example 438, [3-{4-[7-(3-hydroxyphenyl)quinolin-5-yl]-2H-1,2,3-triazol-2-yl}-1-(methylsulfonyl)azetidin-3-yl]acetonitrile]
- IC50 (TYK2; JAK Caliper enzyme assay): 107 nM
- IC50 (JAK1; JAK Caliper enzyme assay): 5630 nM
- IC50 (JAK2; JAK Caliper enzyme assay): 1960 nM
- IC50 (JAK3; JAK Caliper enzyme assay): > 10000 nM

Compound: N#CCC1(n2ncc(-c3cc(-c4cc[nH]n4)cc4ncccc34)n2)CN(CC(F)(F)F)C1 [Example 296, [3-{4-[7-(1H-pyrazol-3-yl)quinolin-5-yl]-2H-1,2,3-triazol-2-yl}-1-(2,2,2-trifluoroethyl)azetidin-3-yl]acetonitrile]
- IC50 (TYK2): 41 nM
- IC50 (JAK1): 534 nM
- IC50 (JAK2): 598 nM
- IC50 (JAK3): > 10000 nM

Compound: CS(=O)(=O)N1CC(CC#N)(n2ccc(-c3nc(-c4cnn([C@H]5CCOC5)c4)cc4ncccc34)n2)C1 [Example 123, {1-(methylsulfonyl)-3-[3-(7-{1-[(3S)-tetrahydrofuran-3-yl]-1H-pyrazol-4-yl}-1,6-naphthyridin-5-yl)-1H-pyrazol-1-yl]azetidin-3-yl}acetonitrile]
- IC50 (TYK2): 21 nM
- IC50 (JAK1): 744 nM
- IC50 (JAK2): 54 nM
- IC50 (JAK3): 9660 nM

Compound: N#CCC1(n2ccc(-c3nc(-c4cnc5cc[nH]c5c4)cc4ncccc34)n2)CN(CC(F)(F)F)C1 [Example 158, [3-{3-[7-(1H-pyrrolo[3,2-b]pyridin-6-yl)-1,6-naphthyridin-5-yl]-1H-pyrazol-1-yl}-1-(2,2,2-trifluoroethyl)azetidin-3-yl]acetonitrile]
- IC50 (TYK2): 33 nM
- IC50 (JAK1): 1970 nM
- IC50 (JAK2): 666 nM
- IC50 (JAK3): > 10000 nM

Compound: Cn1cc(-c2cc(-c3cnn(C4(CC#N)CC(C#N)C4)n3)c3cccnc3c2)c(CO)n1 (stereo not drawn) [Example 329, trans-3-(cyanomethyl)-3-(4-{7-[3-(hydroxymethyl)-1-methyl-1H-pyrazol-4-yl]quinolin-5-yl}-2H-1,2,3-triazol-2-yl)cyclobutanecarbonitrile]
- IC50 (TYK2): 71 nM
- IC50 (JAK1): 7000 nM
- IC50 (JAK2): 666 nM
- IC50 (JAK3): > 10000 nM

Compound: Cn1cc(-c2cc(-c3cnn(C4(CC#N)CC(C#N)C4)n3)c3cccnc3c2)cn1 (stereo not drawn) [Example 325, cis-3-(cyanomethyl)-3-{4-[7-(1-methyl-1H-pyrazol-4-yl)quinolin-5-yl]-2H-1,2,3-triazol-2-yl}cyclobutanecarbonitrile]
- IC50 (TYK2): 11 nM
- IC50 (JAK1): 319 nM
- IC50 (JAK2): 32 nM
- IC50 (JAK3): 2150 nM

Compound: CS(=O)(=O)N1CC(CC#N)(n2ccc(-c3nc(-c4cncc(N)c4)cc4ncccc34)n2)C1 [Example 193]
- IC50 (TYK2): 147 nM
- IC50 (JAK1): 5570 nM
- IC50 (JAK2): 1680 nM
- IC50 (JAK3): > 10000 nM

Compound: N#CCC1(n2ccc(-c3nc(-c4ccnc(C(N)=O)c4)cc4ncccc34)n2)CN(CC(F)(F)F)C1 [Example 215, 4-(5-{1-[3-(cyanomethyl)-1-(2,2,2-trifluoroethyl)azetidin-3-yl]-1H-pyrazol-3-yl}-1,6-naphthyridin-7-yl)pyridine-2-carboxamide]
- IC50 (TYK2): 175 nM
- IC50 (JAK1): 6010 nM
- IC50 (JAK2): 2190 nM
- IC50 (JAK3): > 10000 nM

Compound: CS(=O)(=O)Nc1ccc(-c2cc3ncccc3c(-c3ccn(C4(CC#N)CN(S(C)(=O)=O)C4)n3)n2)cn1 [Example 205, N-[5-(5-{1-[3-(cyanomethyl)-1-(methylsulfonyl)azetidin-3-yl]-1H-pyrazol-3-yl}-1,6-naphthyridin-7-yl)pyridin-2-yl]methanesulfonamide]
- IC50 (TYK2): 17 nM
- IC50 (JAK1): 120 nM
- IC50 (JAK2): 149 nM
- IC50 (JAK3): > 10000 nM

Compound: Cc1ccc(-c2cc3ncccc3c(-c3ccn(C4(CC#N)CN(S(C)(=O)=O)C4)n3)n2)cn1 [Example 175, [3-{3-[7-(6-methylpyridin-3-yl)-1,6-naphthyridin-5-yl]-1H-pyrazol-1-yl}-1-(methylsulfonyl)azetidin-3-yl]acetonitrile]
- IC50 (TYK2): 135 nM
- IC50 (JAK1): 5740 nM
- IC50 (JAK2): 1180 nM
- IC50 (JAK3): > 10000 nM

Compound: [3-(4-{7-[1-(oxetan-3-yl)-1H-pyrazol-4-yl]-1,6-naphthyridin-5-yl}-1H-pyrazol-1-yl)-1-(2,2,2-trifluoroethyl)azetidin-3- [Example 10]
- IC50 (TYK2): 20 nM
- IC50 (JAK1): 86 nM
- IC50 (JAK2): 10 nM
- IC50 (JAK3): 2000 nM

Compound: CS(=O)(=O)N1CC(CC#N)(n2ncc(-c3cc(-c4ccc(O)c(F)c4)cc4ncccc34)n2)C1 [Example 444]
- IC50 (TYK2; JAK Caliper enzyme assay): 77 nM
- IC50 (JAK1; JAK Caliper enzyme assay): 1240 nM
- IC50 (JAK2; JAK Caliper enzyme assay): 1180 nM
- IC50 (JAK3; JAK Caliper enzyme assay): > 10000 nM

Compound: N#CCC1(n2cc(-c3nc(-c4cnn(C5CCOCC5)c4)cc4ncccc34)cn2)CN(CC(F)(F)F)C1 [Example 11, [3-(4-{7-[1-(tetrahydro-2H-pyran-4-yl)-1H-pyrazol-4-yl]-1,6-naphthyridin-5-yl}-1H-pyrazol-1-yl)-1-(2,2,2-trifluoroethyl)azetidin-3-yl]acetonitrile]
- IC50 (TYK2): 21 nM
- IC50 (JAK1): 70 nM
- IC50 (JAK2): 14 nM
- IC50 (JAK3): 2620 nM

Compound: CS(=O)(=O)N1CC(CC#N)(n2ccc(-c3nc(-c4cnn(C5COC5)c4)cc4ncccc34)n2)C1 [Example 121, [1-(methylsulfonyl)-3-(3-{7-[1-(oxetan-3-yl)-1H-pyrazol-4-yl]-1,6-naphthyridin-5-yl}-1H-pyrazol-1-yl)azetidin-3-yl]acetonitrile]
- IC50 (TYK2): 20 nM
- IC50 (JAK1): 1750 nM
- IC50 (JAK2): 101 nM
- IC50 (JAK3): 9590 nM

Compound: N#CCC1(n2ccc(-c3nc(-c4cc[nH]n4)cc4ncccc34)n2)CC2(COC2)C1 [Example 37, (6-{3-[7-(1H-pyrazol-3-yl)-1,6-naphthyridin-5-yl]-1H-pyrazol-1-yl}-2-oxaspiro[3.3]hept-6-yl)acetonitrile]
- IC50 (TYK2): 369 nM
- IC50 (JAK1): 4280 nM
- IC50 (JAK2): 2830 nM
- IC50 (JAK3): > 10000 nM

Compound: Cc1nc(-c2cc(-c3cnn([C@]4(CC#N)C[C@@H](C#N)C4)n3)c3cccnc3c2)c[nH]1 [Example 337, trans-3-(cyanomethyl)-3-{4-[7-(2-methyl-1H-imidazol-4-yl)quinolin-5-yl]-2H-1,2,3-triazol-2-yl}cyclobutanecarbonitrile]
- IC50 (TYK2): 33 nM
- IC50 (JAK1): 2910 nM
- IC50 (JAK2): 243 nM
- IC50 (JAK3): > 10000 nM

Compound: N#CC[C@]1(n2cc(-c3cc(-c4cc[nH]n4)cc4nccn34)cn2)C[C@H](C#N)C1 [Example 455, trans-3-(cyanomethyl)-3-{4-[7-(1H-pyrazol-3-yl)imidazo[1,2-a]pyridin-5-yl]-1H-pyrazol-1-yl}cyclobutanecarbonitrile]
- IC50 (TYK2; JAK Caliper enzyme assay): 319 nM
- IC50 (JAK1; JAK Caliper enzyme assay): > 10000 nM
- IC50 (JAK2; JAK Caliper enzyme assay): 5680 nM
- IC50 (JAK3; JAK Caliper enzyme assay): > 10000 nM

Compound: CS(=O)(=O)N1CC(CC#N)(n2ccc(-c3nc(-c4c[nH]c5ncccc45)cc4ncccc34)n2)C1 [Example 159, [1-(methylsulfonyl)-3-{3-[7-(1H-pyrrolo[2,3-b]pyridin-3-yl)-1,6-naphthyridin-5-yl]-1H-pyrazol-1-yl}azetidin-3-yl]acetonitrile]
- IC50 (TYK2): 7 nM
- IC50 (JAK1): 120 nM
- IC50 (JAK2): 116 nM
- IC50 (JAK3): > 10000 nM

Compound: N#CCC1(n2ccc(-c3nc(-c4nc(CO)cs4)cc4ncccc34)n2)CC(C#N)C1 (stereo not drawn) [Example 156, cis-3-(cyanomethyl)-3-(3-{7-[4-(hydroxymethyl)-1,3-thiazol-2-yl]-1,6-naphthyridin-5-yl}-1H-pyrazol-1-yl)cyclobutanecarbonitrile]
- IC50 (TYK2): 119 nM
- IC50 (JAK1): 2050 nM
- IC50 (JAK2): 815 nM
- IC50 (JAK3): > 10000 nM
